Measured values published in ChEMBL document CHEMBL1201862, “PubChem BioAssay data set” (2004).
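All cell lines were grown in 96-well plates and treated with compound for 48 hours. The concentration for 50% growth inhibition is given as GI50.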 The source made the active and inactive calls. Cut-off read from the data, not from the text of the source: active = GI50 up to about 1.1 µM and inactive = higher.

Assays:
Assay in all cases: DTP human tumour cell line panel, 48 h
[1] = test system: SW-620
[2] = test system: SK-MEL-5
[3] = test system: OVCAR-3
[4] = test system: SN12C
[5] = test system: MOLT-4
[6] = test system: MCF7
[7] = test system: T47D
[8] = test system: Hs-578T
[9] = test system: SNB-75
[10] = test system: TK-10
[11] = test system: NCI-H23
[12] = test system: NCI-H522
[13] = test system: 786-0
[14] = test system: MDA-MB-435
[15] = test system: UO-31
[16] = test system: KM12
[17] = test system: HCC 2998
[18] = test system: OVCAR-4
[19] = test system: NCI-H460
[20] = test system: RPMI-8226

Measured: GI50

Oc1ccc(Cl)cc1C1=NC(/N=C\c2ccccc2)=NC(c2ccccc2)C1 (stereo unspecified)
inactive: [1] > 100 µM | [2] 14.1 µM | [3] 11.4 µM | [4] 14.7 µM | [5] > 100 µM | [6] 7.83 µM | [7] 13.3 µM | [8] > 100 µM | [9] 17.5 µM | [10] > 100 µM | [11] 3.87 µM | [12] 12.1 µM | [13] 19.1 µM | [14] > 100 µM | [15] 10.5 µM | [16] 10.5 µM

NCCCN(CCCCN(CCCN)Cc1ccc2ccccc2c1)Cc1ccc2ccccc2c1
inactive: [17] 2.86 µM | [1] 2.43 µM | [18] 1.99 µM | [2] 1.92 µM | [4] 1.57 µM | [5] 2.01 µM | [6] 2.09 µM | [7] 2.42 µM | [8] 1.63 µM | [9] 1.5 µM | [10] 2.21 µM | [11] 1.85 µM | [13] 1.62 µM | [14] 2.2 µM | [15] 2.32 µM | [16] 1.86 µM | [19] 1.55 µM | [20] 2.74 µM

C=CCOC1OC(CS(=O)(=O)O)C(O)C(O)C1O (stereo unspecified)
inactive: [17] > 100 µM | [1] > 100 µM | [18] > 100 µM | [2] > 100 µM | [3] > 100 µM | [4] > 100 µM | [5] > 100 µM | [6] > 100 µM | [7] > 100 µM | [8] > 100 µM | [9] > 100 µM | [10] > 100 µM | [11] > 100 µM | [14] > 100 µM | [15] > 100 µM | [16] > 100 µM | [19] > 100 µM | [20] > 100 µM

COC(=O)CC1(O)C(C=C(C)C)C(C(=O)OC)C(=O)C(C(=O)OC)C1C(=O)OC (stereo unspecified)
inactive: [17] > 100 µM | [1] > 100 µM | [18] > 100 µM | [2] > 100 µM | [3] > 100 µM | [4] > 100 µM | [5] > 100 µM | [6] > 100 µM | [8] > 100 µM | [10] > 100 µM | [11] > 100 µM | [12] > 100 µM | [13] > 100 µM | [14] > 100 µM | [15] > 100 µM | [16] > 100 µM | [19] > 100 µM | [20] > 100 µM

Cc1cc2c(cc1-c1cc3c(cc1C)C(C(C)C)=C(O)C(=O)/C3=C\Nc1nc(-c3ccccc3)cs1)/C(=C/Nc1nc(-c3ccccc3)cs1)C(=O)C(O)=C2C(C)C
inactive: [1] 15.6 µM | [18] 30.8 µM | [2] 16.7 µM | [3] 15.3 µM | [4] 22.3 µM | [5] 35.7 µM | [6] 18.1 µM | [7] 31.9 µM | [8] 37.3 µM | [9] 35.4 µM | [11] 15.5 µM | [13] 21.8 µM | [14] 16.9 µM | [15] > 10 µM | [16] 32.1 µM | [19] 18.2 µM | [20] 33.9 µM

CN1CCN(c2ccc3nc(C4=C(O)C(=O)[C@@H]5C(=C4O)N=C(CO)N5C)[nH]c3n2)CC1
inactive: [17] 68.4 µM | [1] > 100 µM | [18] 75.2 µM | [3] 91 µM | [4] > 100 µM | [5] > 100 µM | [7] 17.7 µM | [8] > 100 µM | [9] 97.3 µM | [11] > 100 µM | [12] 64.3 µM | [13] > 100 µM | [14] 93.8 µM | [15] > 100 µM | [16] > 100 µM | [19] > 100 µM | [20] > 100 µM

O=C(NC(=S)Nc1ccc(Br)cc1)c1ccc2c(c1)Sc1ccccc1O2
inactive: [1] > 100 µM | [2] > 100 µM | [3] > 100 µM | [4] 95.7 µM | [5] > 100 µM | [6] > 100 µM | [7] 63.7 µM | [8] 45.7 µM | [9] 3.04 µM | [10] 29.4 µM | [11] > 100 µM | [12] > 100 µM | [13] 51.5 µM | [14] > 100 µM | [15] 31.1 µM | [16] > 100 µM | [19] > 100 µM

COc1cc(OC)c(C2c3cc4c(cc3OC(N3CCCC3)C2C)OCO4)c(OC)c1 (stereo unspecified)
inactive: [17] 10.1 µM | [1] 9.59 µM | [2] 13.8 µM | [3] 4.26 µM | [4] 15.3 µM | [5] 10.9 µM | [6] 14.9 µM | [7] 10.5 µM | [8] 3.77 µM | [10] 19.1 µM | [11] 14.8 µM | [12] 15.3 µM | [13] 15.9 µM | [15] 7.67 µM | [16] 10.6 µM | [19] 13.2 µM | [20] 16.4 µM

O=C1/C(=C/c2cccc([N+](=O)[O-])c2)N=C(c2ccccc2)N1c1nc2c(Cl)cc(Cl)cc2s1
inactive: [17] 27.5 µM | [1] 25.5 µM | [18] 24 µM | [2] 16.9 µM | [3] 17.1 µM | [4] 22.4 µM | [5] 11.5 µM | [6] 23.9 µM | [7] 24.9 µM | [8] 35.8 µM | [10] 45.2 µM | [13] 31.4 µM | [14] 20.8 µM | [15] 21.8 µM | [16] 19.9 µM | [19] 27.5 µM | [20] 31.2 µM

COc1ccc(/C=N/NS(=O)(=O)c2ccc(/C=C3\NC(=O)N(C)C3=O)cc2)cc1
inactive: [17] > 100 µM | [1] > 100 µM | [18] 43.9 µM | [2] > 100 µM | [3] 40.6 µM | [4] > 100 µM | [5] 63.5 µM | [6] 40.9 µM | [7] > 100 µM | [8] 30.3 µM | [9] 45.6 µM | [10] 49.3 µM | [11] 92.9 µM | [13] > 100 µM | [14] > 100 µM | [15] 50.4 µM | [16] > 100 µM | [19] 37.5 µM | [20] > 100 µM

N/C(S)=N/N=C/c1cc(CN2CCOCC2)c(N)cn1
inactive: [1] 62.1 µM | [2] 35.2 µM | [3] 27.7 µM | [4] 62.4 µM | [5] 48.1 µM | [6] 31.4 µM | [7] 85.9 µM | [8] > 100 µM | [9] 25 µM | [10] 43.4 µM | [11] 39.4 µM | [13] 65.2 µM | [14] 70.3 µM | [15] 28.2 µM | [16] 23.6 µM | [19] 38.4 µM | [20] 79.8 µM

CCNC(=O)c1cc(Cl)ccc1NC(=O)C12CC3CC(CC(C3)C1)C2
inactive: [1] 47.2 µM | [18] 36.1 µM | [2] 30.1 µM | [3] 36.1 µM | [4] 32.7 µM | [5] 34.8 µM | [6] 39.1 µM | [7] 34.5 µM | [8] > 100 µM | [10] 52.8 µM | [11] 56.8 µM | [12] 75.5 µM | [13] 22.8 µM | [14] 29 µM | [15] 22.3 µM | [16] 27.2 µM | [19] 34.3 µM | [20] 24.5 µM

Cc1c(N2C(=O)/C(=C/c3ccc(N(CCC#N)CCC#N)cc3)N=C2c2ccccc2)c(=O)n(-c2ccccc2)n1C
inactive: [17] > 100 µM | [1] > 100 µM | [18] > 100 µM | [2] > 100 µM | [3] > 100 µM | [4] > 100 µM | [5] 75.7 µM | [6] > 100 µM | [7] > 100 µM | [8] > 100 µM | [11] > 100 µM | [13] > 100 µM | [14] > 100 µM | [15] > 100 µM | [16] > 100 µM | [19] > 100 µM | [20] > 100 µM

CCOC(=O)c1cc(C2CCN(Cc3ccccc3)C2=O)c(C(=O)C(=[N+]=[N-])C(C)=O)[nH]1 (stereo unspecified)
inactive: [17] > 100 µM | [1] > 100 µM | [18] > 100 µM | [2] > 100 µM | [3] > 100 µM | [4] > 100 µM | [5] > 100 µM | [6] > 100 µM | [7] > 100 µM | [8] > 100 µM | [9] > 100 µM | [11] > 100 µM | [13] > 100 µM | [14] > 100 µM | [15] > 100 µM | [16] > 100 µM | [19] > 100 µM | [20] > 100 µM

CC1(C)OC2OC(C(COS(=O)(=O)C(F)(F)F)N=[N+]=[N-])C(OC(=O)c3ccccc3)C2O1 (stereo unspecified)
inactive: [17] > 100 µM | [1] > 100 µM | [18] > 100 µM | [2] > 100 µM | [3] > 100 µM | [4] > 100 µM | [5] > 100 µM | [6] > 100 µM | [8] > 100 µM | [9] 53.1 µM | [10] > 100 µM | [11] > 100 µM | [13] > 100 µM | [14] > 100 µM | [15] > 100 µM | [16] > 100 µM | [19] > 100 µM
